Reference: patent publication US20240226234A1, “WNT5A PEPTIDES FOR THE TREATMENT OF ACUTE M[…]” (W[…], priority 2021, published 2024)
No end group written: not given here. *: point of attachment. For = O=C*

Tests used:
Format in all cases: cell-based, human
K562 cells [1] = assay: Cell growth assay, K562 cells; conditions: Foxy-5 100 μM, 72 h
Procedure: (§1) A panel of human myeloid leukemia cell lines (HL60, K562, KG1a, THP1 and U937) and HS-5 mesenchymal stromal cells lineage were cultured in Roswell Park Memorial Institute medium-1640 (RPMI; Sigma) containing 10% Fetal Bovine Serum (Gibco), glutamine (2 mM; Sigma), penicillin (100 μg/mL; Sigma), streptomycin (100 μg/mL; Sigma), and amphotericin B (0.25 μg/mL; Gibco). The cells were maintained in a humidified atmosphere at 37° C. and 5% CO2 and the experiments were performed when they reached exponential growth. For the assays, cells were seeded on a 24-well plate and treated or not with Foxy-5 for 72 hours.
(§2) Cells treated with Foxy or with vehicle were collected and cell number was evaluated by manual counting in monoculture and by microscopy with Image J software analysis in 2D culture.
(§3) Next, we evaluated the proliferation rates since this process is modulated by ROS. We treated the cells with Foxy-5 (100 μM) or with vehicle (DMSO) during 72 hours, and then cell growth was analyzed by counting the cells in monoculture, manually, or by the Image J software analysis of the 2D cultures. […] Similar results were obtained in the 2D culture system using leukemia cells and HS-5 mesenchymal stromal cells.

U937 cells [2] = assay: Cell differentiation assay with PMA, U937 cells; conditions: U937, PMA (200 nM), 72 hours, morphology by microscopy
Procedure: Cells were subjected to treatment with Foxy-5 or with vehicle, in the presence or absence of PMA (200 nM). After 72 hours, adherent cells were washed with PBS and their morphology was examined using a Zeiss Axi-oskope 2 Plus microscope (Carl Zeiss AG). The program ImageJ was used to assess differentiation.
PMA reagent is a typical inducer of AML cell differentiation through generation of ROS. As U937 leukemia cell lineage corresponds to a model of differentiated monocyte and/or macrophage following treatment with PMA, we examined the effects of Foxy-5 treatment on U937 differentiation-inducing PMA. Following treatment with PMA for 72 hours, cells were examined by microscopy to detect morphology. The majority of cells treated with vehicle and stimulated with PMA differentiated into macrophages and adhered to the plates.

U937 cells [3] = assay: Cell growth assay, U937 cells; conditions: Foxy-5 100 μM, 72 h
Procedure: as §1, §2, §3

THP1 cells = assay: Actin polymerization assay, THP1 cells; conditions: THP1, Foxy-5 100 μM 72 h
Procedure: F-actin polymerization was analyzed in treated leukemic cell lines using AlexaFluor 633-labeled phalloidin (A22284, Invitrogen) before and after CXCL12 stimulation. The cells were stimulated with CXCL12 (300 ng/ml; Peprotech) in serum-free media at 37 °C for 30 and 120 seconds. The reaction was stopped by adding 3 volumes of paraformaldehyde (3.7%) at room temperature for 10 min, then washed and permeabilized on ice. Cells were stained with 633-phalloidin (2 mg/mL). Flow cytometric data were analyzed using a FACS flow cytometer (BD) followed by FlowJo software analysis. The F-actin content obtained were normalized calculating the ratio between each stimulated cells-mean fluorescence intensity (MFI) values and the nonstimulated cells MFI from the basal levels of the control cells and expressed as fold change.
Therefore, we performed a flow cytometry analysis to evaluate whether Foxy-5 treatment would be able to disrupt actin polymerization. Leukemia cell lines were treated with Foxy-5 (100 μM) or vehicle during 72 hours, stimulated with CXCL12 (300 ng/ml) for 30 or 120 seconds, and stained with […] for detection of actin polymerization by flow cytometry. […] Thus, a significant reduction of actin polymerization was shown after Foxy-5 treatment when compared to untreated cells after 30 seconds of CXCL12 induction (P<. 001).

U937 cells [4] = assay: Cell cycle assay, U937 cells; conditions: 72 h
Procedure: as §1
(§4) Cells treated with Foxy or with vehicle were collected and fixed, at least, 24 hours in 70% ethanol. DNA was stained with a buffer containing iodide propidium (20 μg/mL; Sigma) and RNase A (10 μg/mL; Sigma). Cell fluorescence was detected with a FACSCalibur flow cytometer (BD). The proportions of cells in the cell cycle phases were analyzed by Modifit (Verify Software House Inc), according to DNA distributions.
(§5) As we observed a reduction in the leukemic proliferation after Foxy-5 treatment, we also analyzed the cell cycle phases. Leukemia cell lines were treated for 72 hours with Foxy-5, at doses of 50 μM and 100 μM, or vehicle, stained with the Piper buffer containing RNAse and iodeto propidium and then analyzed by flow cytometry.

HL60 cells = assay: Autophagy assay (acridine orange), HL60 cells; conditions: HL60, 2D culture, 72 h
Procedure: as §1
Cells treated with Foxy or with vehicle were collected and acids vesicles were measured by flow cytometry following staining with Acridine Orange (0.01 mg/mL; Sigma). Acquisition of cells was performed on a FACScalibur flow cytometer (BD) and analysis was carried out using the FlowJo software 4.
As autophagy is required for sustaining leukemia cell growth by induction of ROS production, we measured the levels of acidic granule formation by flow cytometry after Foxy-5 or vehicle treatment. […]

K562 cells [5] = assay: Cell cycle assay, K562 cells; conditions: 72 h
Procedure: as §1, §4, §5

Foxy-5: Formylated hexapeptide fragment of WNT5A: MDGCEL (SEQ. ID. NO. 3) with methionine in position 1 as N-formyl methionine; WNT5A-mimicking compound (For-MDGCEL; listed as Homo sapiens)
reduced cell growth compared to vehicle treated cells (K562 cells [1]; K562, 2D culture with HS-5 stromal cells): 1.79 fold decrease
reduced cell growth compared to vehicle treated cells (K562 cells [1]; K562, monoculture): 3.12 fold decrease
PMA-mediated differentiation compared with PMA-stimulated cells treated with vehicle (U937 cells [2]): reduced PMA-mediated differentiation
reduced cell growth compared to vehicle treated cells (U937 cells [3]; U937, 2D culture with HS-5 stromal cells): 1.72 fold decrease
reduced cell growth compared to vehicle treated cells (U937 cells [3]; U937, monoculture): 1.75 fold decrease
F-actin content following CXCL12 stimulation (THP1 cells; CXCL12 300 ng/ml for 30 seconds): 3.56 fold increase
F-actin content following CXCL12 stimulation (THP1 cells; CXCL12 300 ng/ml for 120 seconds): 1.59 fold
cells in G0/G1 cell cycle phase (average) (U937 cells [4]; U937, co-cultured with HS5 stromal cells, Foxy-5 50 μM): 77.37%
cells in G0/G1 cell cycle phase (average) (U937 cells [4]; U937, co-cultured with HS5 stromal cells, Foxy-5 100 μM): 91.52%
cells in G0/G1 cell cycle phase (average) (U937 cells [4]; U937, monoculture, Foxy-5 50 μM): 55.07%
cells in G0/G1 cell cycle phase (average) (U937 cells [4]; U937, monoculture, Foxy-5 100 μM): 56.64%
autophagy (acidic granule formation, acridine orange, average) (HL60 cells; Foxy-5 50 μM): 10.04 (range 7.20-11.93) MFI
autophagy (acidic granule formation, acridine orange, average) (HL60 cells; Foxy-5 100 μM): 6.60 (range 5.42-6.69) MFI
cells in G0/G1 cell cycle phase (average) (K562 cells [5]; K562, co-cultured with HS5 stromal cells, Foxy-5 50 μM): 65.32%
cells in G0/G1 cell cycle phase (average) (K562 cells [5]; K562, co-cultured with HS5 stromal cells, Foxy-5 100 μM): 83.52%
cells in G0/G1 cell cycle phase (average) (K562 cells [5]; K562, monoculture, Foxy-5 50 μM): 59.00%
cells in G0/G1 cell cycle phase (average) (K562 cells [5]; K562, monoculture, Foxy-5 100 μM): 83.51%
